The record followed here is patent US10428080B2, “TBK/IKK inhibitor compounds and uses thereof” (Merck Patent GmbH, priority 2015, dated 2019).

The structures appear in SMILES notation. Structures can show the parent of a compound that is named as a salt. Where two headings read alike, the source gives them in different places. Bounds are passed on as bounds.

In assay [1] the target is T1, IKKε (Homo sapiens, UniProt Q14164).
T1 sequence (Q14164 1-716): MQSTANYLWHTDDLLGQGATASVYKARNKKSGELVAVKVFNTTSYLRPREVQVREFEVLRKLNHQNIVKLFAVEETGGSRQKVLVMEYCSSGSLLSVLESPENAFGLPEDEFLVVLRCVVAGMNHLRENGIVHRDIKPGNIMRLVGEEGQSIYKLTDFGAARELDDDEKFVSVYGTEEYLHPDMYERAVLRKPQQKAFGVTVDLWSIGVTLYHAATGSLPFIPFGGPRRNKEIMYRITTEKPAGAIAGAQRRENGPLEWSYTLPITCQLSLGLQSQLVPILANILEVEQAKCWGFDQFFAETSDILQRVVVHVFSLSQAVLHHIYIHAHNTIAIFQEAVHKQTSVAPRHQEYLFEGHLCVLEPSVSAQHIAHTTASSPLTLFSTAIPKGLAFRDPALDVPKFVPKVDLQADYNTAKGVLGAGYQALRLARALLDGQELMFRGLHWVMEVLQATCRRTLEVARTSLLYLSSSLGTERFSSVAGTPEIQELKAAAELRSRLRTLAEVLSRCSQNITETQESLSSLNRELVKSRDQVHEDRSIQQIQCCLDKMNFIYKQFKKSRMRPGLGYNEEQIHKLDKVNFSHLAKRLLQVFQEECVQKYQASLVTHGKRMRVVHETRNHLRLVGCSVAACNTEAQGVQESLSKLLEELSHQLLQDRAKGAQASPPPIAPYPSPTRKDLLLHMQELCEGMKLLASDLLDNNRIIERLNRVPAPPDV
Briefly: IKKe Biochemical Assay. Conditions: read-out: IKKε IC50. The method, boiled down:
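Activity was measured as mobility-shift separation of phosphorylated from unphosphorylated substrate on a LabChip EZ Reader. Compound was titrated from 30 uM final in 10 points, 1:4 steps, with 1% DMSO, and enzyme plus substrate reacted 90 min at 25° C before stop buffer. Control wells held 10 uM staurosporine.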

Assay [2] addresses T2, TBK1 (Homo sapiens, UniProt Q9UHD2).
T2 sequence (Q9UHD2 1-729): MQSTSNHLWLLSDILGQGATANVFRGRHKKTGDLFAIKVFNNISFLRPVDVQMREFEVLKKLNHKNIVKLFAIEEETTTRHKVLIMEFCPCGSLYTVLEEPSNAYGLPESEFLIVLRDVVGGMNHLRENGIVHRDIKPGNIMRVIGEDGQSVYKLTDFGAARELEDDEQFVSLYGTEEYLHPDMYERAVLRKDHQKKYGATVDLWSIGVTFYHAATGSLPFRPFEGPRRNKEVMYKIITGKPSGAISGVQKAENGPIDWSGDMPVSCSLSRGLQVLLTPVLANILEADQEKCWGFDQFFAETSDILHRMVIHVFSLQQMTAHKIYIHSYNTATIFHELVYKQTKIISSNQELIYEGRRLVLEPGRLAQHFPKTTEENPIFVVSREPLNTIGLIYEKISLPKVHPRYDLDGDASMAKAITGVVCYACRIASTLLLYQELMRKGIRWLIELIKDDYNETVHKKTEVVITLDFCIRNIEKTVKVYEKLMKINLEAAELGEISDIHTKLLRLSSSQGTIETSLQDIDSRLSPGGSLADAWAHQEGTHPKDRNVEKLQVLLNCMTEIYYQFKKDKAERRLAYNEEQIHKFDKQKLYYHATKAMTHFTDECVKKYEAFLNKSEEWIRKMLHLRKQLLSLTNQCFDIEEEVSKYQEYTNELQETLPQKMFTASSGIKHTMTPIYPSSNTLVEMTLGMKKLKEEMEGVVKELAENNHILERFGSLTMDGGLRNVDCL
Briefly: TBK Biochemical Assay. Particulars: read-out: TBK1 IC50. The essentials: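 Caliper LabChip mobility-shift readout of substrate and product after 90 min of TBK1 reaction at 25° C and stop-buffer addition. Compounds tested in 1:4 serial dilution over 10 points from 30 uM final at 1% DMSO; staurosporine 10 uM final defines full inhibition.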

Assay [3] deals with phosphorylation of the IRF-3 protein in MDA-MB-468 cells. Kind of assay: pIRF3 immunocytochemistry cell based assay. Conditions: Homo sapiens. The method, boiled down: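 After 2 h stimulation with Poly(I:C) (10 ug/ml), following 1 h compound pre-treatment (10-point, 3-fold dilution, top 10 uM), MDA-MB-468 cells were fixed and stained with anti-pIRF3 antibody. pIRF3 fluorescence was normalized to PI staining or cell count on an Acumen cytometer. IC50 curves were derived from this.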

Where [4] appears, read: MDA-MB-468 cells, Poly(I:C) stimulation, read-out: pIRF3 IC50.
Where [5] appears, read: MDA-MB-468, read-out: pIRF3 IC50.

Turning to `COc1cc(C(=O)N(C)C)ccc1-c1cc2ncc(F)c(-c3ccc(NC4CCOCC4)c(C#N)c3)c2o1` [Compound 299, 4-(7-[3-cyano-4-[(oxan-4-yl)amino]phenyl]-6-fluorofuro[3,2-b]pyridin-2-yl)-3-methoxy-N,N-dimethylbenzamide], the IC50 (commonly the midpoint of a concentration-inhibition curve) in assay [1] is below 100 nM; in assay [2], below 100 nM; in assay [3] (setting [4]) it was 100 to 1000 nM.

`CN(C)C(=O)c1ccc(-c2cc3ncc(F)c(-c4ccc(NC5CCOCC5)c(C#N)c4)c3o2)c(F)c1` [Compound 300, 4-(7-[3-cyano-4-[(oxan-4-yl)amino]phenyl]-6-fluorofuro[3,2-b]pyridin-2-yl)-3-fluoro-N,N-dimethylbenzamide]: the IC50 in assay [1] is 100 to 1000 nM; in assay [2], 100 to 1000 nM; in assay [3] (setting [4]) it was 1000 to 5000 nM.

`CN(C)C(=O)c1ccc(-c2cc3ncc(F)c(-c4ccc(OC5CCOCC5)c(C#N)c4)c3o2)c(F)c1` [Compound 301, 4-[7-[3-cyano-4-(oxan-4-yloxy)phenyl]-6-fluorofuro[3,2-b]pyridin-2-yl]-3-fluoro-N,N-dimethylbenzamide]: the IC50 in assay [1] was below 100 nM; in assay [2] it was below 100 nM; in assay [3] (setting [4]), 1000 to 5000 nM.

Consider `CN(CCO)C(=O)c1ccc(-c2cc3ncc(F)c(-c4ccc(OC5CCOCC5)c(C#N)c4)c3o2)c(F)c1` [Compound 302, 4-[7-[3-cyano-4-(oxan-4-yloxy)phenyl]-6-fluorofuro[3,2-b]pyridin-2-yl]-3-fluoro-N-(2-hydroxyethyl)-N-methylbenzamide], for which the IC50 was below 100 nM in assay [1], below 100 nM in assay [2] and 100 to 1000 nM in assay [3] (setting [4]).

Consider `CN(CCO)C(=O)c1ccc(-c2cc3ncc(F)c(-c4ccc(NC5CCOCC5)c(C#N)c4)c3o2)c(F)c1` [Compound 303, 4-(7-[3-cyano-4-[(oxan-4-yl)amino]phenyl]-6-fluorofuro[3,2-b]pyridin-2-yl)-3-fluoro-N-(2-hydroxyethyl)-N-methylbenzamide], for which the IC50 in assay [1], in assay [2] and in assay [3] (setting [4]) was 100 to 1000 nM each time.

With `COc1cc(C(=O)N(C)CCO)ccc1-c1cc2ncc(Cl)c(-c3ccc(OC4CCOCC4)c(C#N)c3)c2o1` [Compound 304, 4-[6-chloro-7-[3-cyano-4-(oxan-4-yloxy)phenyl]furo[3,2-b]pyridin-2-yl]-N-(2-hydroxyethyl)-3-methoxy-N-methylbenzamide], the IC50 in assay [1] lay within 100 to 1000 nM; in assay [2] it was 100 to 1000 nM; in assay [3] (setting [4]), 1000 to 5000 nM.

Take `COc1nc(C(=O)N(C)C)ccc1-c1cc2nccc(-c3ccc(N4CC[C@@H](F)C4)c(C#N)c3)c2o1` [Compound 313, 5-{7-[3-Cyano-4-((R)-3-fluoro-pyrrolidin-1-yl)-phenyl]-furo[3,2-b]pyridin-2-yl}-6-methoxy-pyridine-2-carboxylic acid dimethylamide]: the IC50 in assay [1] is below 100 nM; in assay [2], below 100 nM; in assay [3] (setting [4]), 100 to 1000 nM.

With `COc1nc(C(=O)N(C)C)ccc1-c1cc2nccc(-c3ccc(N4CC[C@H](F)C4)c(C#N)c3)c2o1` [Compound 314, 5-{7-[3-Cyano-4-((S)-3-fluoro-pyrrolidin-1-yl)-phenyl]-furo[3,2-b]pyridin-2-yl}-6-methoxy-pyridine-2-carboxylic acid dimethylamide], the values for the IC50 in assay [1], in assay [2] and in assay [3] (setting [4]) were below 100 nM, below 100 nM and 100 to 1000 nM, respectively.

In the case of `COc1cc(C(=O)N(C)C)cnc1-c1cc2nccc(-c3ccc(NC4CCOCC4)c(C#N)n3)c2o1` [Compound 315, 6-(7-[6-cyano-5-[(oxan-4-yl)amino]pyridin-2-yl]furo[3,2-b]pyridin-2-yl)-5-methoxy-N,N-dimethylpyridine-3-carboxamide hydrochloride], the IC50 is below 100 nM in assay [1], below 100 nM in assay [2] and 100 to 1000 nM in assay [3] (setting [5]).

`COc1cc(C(=O)N(C)C)cnc1-c1cc2nccc(-c3ccc(OC4CCOCC4)c(C#N)n3)c2o1` [Compound 316, 6-[7-[6-cyano-5-(oxan-4-yloxy)pyridin-2-yl]furo[3,2-b]pyridin-2-yl]-5-methoxy-N,N-dimethylpyridine-3-carboxamide]: the IC50 is below 100 nM in assay [1], below 100 nM in assay [2] and 100 to 1000 nM in assay [3] (setting [4]).

On to `COc1cc(C(=O)N(C)C)cnc1-c1cc2ncc(F)c(-c3ccc(OC4CCOCC4)c(C#N)c3)c2o1` [Compound 317, 6-(7-(3-cyano-4-(tetrahydro-2H-pyran-4-yloxy)phenyl)-6-fluorofuro[3,2-b]pyridin-2-yl)-5-methoxy-N,N-dimethylnicotinamide], for which the IC50 was below 100 nM in assay [1], below 100 nM in assay [2] and 100 to 1000 nM in assay [3] (setting [4]).

Regarding `COc1cc(C(=O)N(C)CCO)cnc1-c1cc2nccc(-c3ccc(NC4CCOCC4)c(C#N)c3)c2o1` [Compound 318, 6-(7-(3-cyano-4-(tetrahydro-2H-pyran-4-ylamino)phenyl)furo[3,2-b]pyridin-2-yl)-N-(2-hydroxyethyl)-5-methoxy-N-methylnicotinamide], the IC50 was below 100 nM in assay [1], below 100 nM in assay [2] and 100 to 1000 nM in assay [3] (setting [4]).

In the case of `COc1cc(C(=O)N(C)C)cnc1-c1cc2ncc(C)c(-c3ccc(NC4CCOCC4)c(C#N)n3)c2o1` [Compound 322, 6-(7-(6-cyano-5-(tetrahydro-2H-pyran-4-ylamino)pyridin-2-yl)-6-methylfuro[3,2-b]pyridin-2-yl)-5-methoxy-N,N-dimethylnicotinamide], the IC50 in assay [1] fell in the range of 1000 to 5000 nM; in assay [2], 100 to 1000 nM; in assay [3] (setting [4]), 1000 to 5000 nM.

`COc1cc(C(=O)N(C)C)ccc1-c1cc2nccc(-c3cnc(NC4CCOCC4)c(C#N)c3)c2o1` [Compound 324, 4-(7-(5-cyano-6-(tetrahydro-2H-pyran-4-ylamino)pyridin-3-yl)furo[3,2-b]pyridin-2-yl)-3-methoxy-N,N-dimethylbenzamide]: the IC50 in assay [1] is below 100 nM; in assay [2] it was below 100 nM; in assay [3] (setting [4]), 100 to 1000 nM.

`COc1cc(C(=O)N(C)C)ncc1-c1cc2nccc(-c3ccc(NC4CCOCC4)c(C#N)c3)c2o1` [Compound 325, 5-(7-[3-cyano-4-[(oxan-4-yl)amino]phenyl]furo[3,2-b]pyridin-2-yl)-4-methoxy-N,N-dimethylpyridine-2-carboxamide]: the IC50 in assay [1] was below 100 nM; in assay [2] it was below 100 nM; in assay [3] (setting [5]), 100 to 1000 nM.

Turning to `COc1cc(C(=O)N(C)C)ncc1-c1cc2nccc(-c3ccc(OC4CCOCC4)c(C#N)c3)c2o1` [Compound 326, 5-[7-[3-cyano-4-(oxan-4-yloxy)phenyl]furo[3,2-b]pyridin-2-yl]-4-methoxy-N,N-dimethylpyridine-2-carboxamide], the IC50 in assay [1], in assay [2] and in assay [3] (setting [4]) was below 100 nM each time.

`COc1cc(C(=O)N(C)CCO)cnc1-c1cc2nccc(-c3ccc(OC4CCOCC4)c(C#N)n3)c2o1` [Compound 327, 6-[7-[6-cyano-5-(oxan-4-yloxy)pyridin-2-yl]furo[3,2-b]pyridin-2-yl]-N-(2-hydroxyethyl)-5-methoxy-N-methylpyridine-3-carboxamide hydrochloride]: the IC50 in assay [1], in assay [2] and in assay [3] (setting [5]) was below 100 nM each time.
